Blank lines part the entries; values can stand above or below the compound they belong to. Calls of active or inactive are those of the source. No cut-off for these calls is given here.
Columns and labels:
HepG2 = test: Lipid lowering activity in human HepG2 cells assessed as decrease in oleic acid elicited lipid accumulation after 6 hrs by oil-red O staining method; format: functional, cell-based; settings: HepG2, 6 h
A549 = test: Cytotoxicity against human A549 cells up to 50 uM by SRB assay; format: cell-based
Micrococcus luteus = test: Antibacterial activity against Micrococcus luteus by disc diffusion assay; format: functional, organism-based
HeLa = test: Cytotoxicity against human HeLa cells up to 50 uM by SRB assay; format: cell-based
Laribacter hongkongensis = test: Antibacterial activity against Laribacter hongkongensis by disc diffusion assay; format: functional
Amphibalanus amphitrite = test: Antifouling activity against Balanus amphitrite by settlement inhibition assay; format: functional, organism-based
[1] = Antifouling activity against Bugula neritina by settlement inhibition assay; format: functional
uncultured Ruegeria sp. = test: Antibacterial activity against Ruegeria sp. by disc diffusion assay; format: functional
SMMC-7721 = test: Cytotoxicity against human SMMC7721 cells up to 50 uM by SRB assay; format: cell-based

IC50 (HepG2): 8.3 µM
Compound: CC[C@H](C)C(=O)O[C@H]1C[C@@H](C)C=C2C=C[C@H](C)[C@H](CC[C@@H]3C[C@@H](O)CC(=O)O3)[C@H]21 [LOVASTATIN]

Compound: C[C@@H](O)CCCCC[C@H](O)[C@@H]1C=CC(=O)O1
Activity (A549): Non-toxic | Activity (Micrococcus luteus): inactive | Activity (HeLa): Non-toxic | Activity (Laribacter hongkongensis): inactive | Activity (Amphibalanus amphitrite): inactive | Activity [1]: inactive | Activity (uncultured Ruegeria sp.): inactive | Activity (SMMC-7721): Non-toxic

Compound: C[C@@H](O)CCCCCC[C@H]1OC(=O)C[C@@H]1O
Activity (A549): Non-toxic | Activity (HeLa): Non-toxic | Activity (SMMC-7721): Non-toxic

Reference: ChEMBL document CHEMBL3603796, “Lipid-lowering polyketides from a soft coral-derived fungus Cladosporium sp. TZP29” (Bioorg Med Chem Lett, 2015)
